From PMC3752336 (Neurochemical research, 2008)
pIC50: −log10 of the molar value.

Molecular target: human M3 muscarinic acetylcholine receptor (hM3) (Homo sapiens, UniProt P20309)
Test: inhibition of [3H]NMS binding, intact CHO cells
Type: cell-based

Sequence of human M3 muscarinic acetylcholine receptor (hM3) (P20309 whole entry): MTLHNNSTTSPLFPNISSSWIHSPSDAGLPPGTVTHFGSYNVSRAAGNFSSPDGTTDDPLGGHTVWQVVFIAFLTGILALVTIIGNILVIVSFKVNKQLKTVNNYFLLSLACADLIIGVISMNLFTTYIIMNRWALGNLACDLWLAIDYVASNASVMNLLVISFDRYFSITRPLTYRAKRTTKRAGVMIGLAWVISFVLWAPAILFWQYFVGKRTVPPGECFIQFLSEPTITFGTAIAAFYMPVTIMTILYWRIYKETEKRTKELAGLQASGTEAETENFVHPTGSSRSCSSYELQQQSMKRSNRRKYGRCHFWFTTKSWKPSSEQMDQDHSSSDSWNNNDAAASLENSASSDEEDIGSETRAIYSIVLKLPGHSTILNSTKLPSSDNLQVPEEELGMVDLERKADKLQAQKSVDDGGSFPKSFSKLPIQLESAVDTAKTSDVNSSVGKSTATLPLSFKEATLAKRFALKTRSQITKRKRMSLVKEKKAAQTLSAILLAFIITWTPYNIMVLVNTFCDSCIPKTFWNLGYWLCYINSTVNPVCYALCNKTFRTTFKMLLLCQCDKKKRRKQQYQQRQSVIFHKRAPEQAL

Work on `CCCCCCOc1nsnc1C1=CCCN(C)C1` [Xanomeline] yielded a pIC50 of 7.10.
